From patent publication US5578622A, “Isothiazole derivatives and their uses” (Asamura Patent Office, priority 1994, dated 1996)

Assays:
[1] = tested on: Trichophyton mentagrophytes IFO 5810; assay: In vitro antimicrobial activity on Trichophyton mentagrophytes; assay type: cell-based; set-up: key: A: Fungus is not observed at all with the naked eye.; B: Presence of fungus is slightly observed on shaking the test tube.; C: Fungus of about less than one-fourth that of the DMSO control group is observed with the naked eye.; Fungus of about less than half that of the DMSO control group is observed with the naked eye; conditions: 10 (ppm); SGB, 27° C., 7 days
Procedure: 3-3 In vitro antimicrobial activity on Trichophyton mentagrophytes To Trichophyton mentagrophytes IFO 5810 precultured at 27° C. for 2 to 3 weeks on a Sabouraud's glucose agar (SGA) slant medium was added a sterilized physiological salt solution containing 0.1% (W/V) Tween 80. After conidia were made free from the solution, the solution was filtered through a sterilized two-sheet gauze to remove the mycelium mass. The number of the conidia in the resulting suspension was counted with a globulimeter and adjusted so as to be 1×10^6 conidia/ml with a sterilized physiological salt solution containing 0.1%(W/V) Tween 80. This solution was used as an inoculum solution. Thereafter, 0.1 ml of this solution and 0.1 ml of the dimethyl sulfoxide (DMSO) solution of the test compound were added to 9.8 ml of Sabouraud's glucose broth (SGB), and shake-cultured at 27° C. for 7 days.

[2] = tested on: Pseudoperonospora cubensis; assay: Test for controlling effect on downy mildew of cucumber; assay type: in vivo; conditions: 168 h, 200 ppm spray, one day before inoculation, cucumber 2-leaf stage, read-out: Controlling effect (control of disease), Downy mildew of cucumber
Procedure, shortened: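 200 ppm compound sprayed on potted 2-leaf cucumber; P. cubensis zoospores spray-inoculated one day later. Plants kept 1 day in humid room at 25° C, then 6 days in greenhouse. Control computed from per-leaf infection relative to untreated plot.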

[3] = tested on: Aspergillus niger; assay: Test for wood rotting-preventing effect (mycelium growth inhibition on malt extract agar); assay type: cell-based; conditions: 28° C.±2° C., 2 to 10 days, read-out: Rotting preventing effect (mycelium growth-inhibitory rate), ASN
Procedure, shortened: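 Mycelial agar disks (4 mm) placed on malt extract agar containing 50 ppm test compound, incubated at 28° C.±2° C. Colony diameter measured 2–10 days after inoculation; growth-inhibitory rate (%) reported as symbol-coded score.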

[4] = tested on: Aspergillus fumigatus TIMM 0063; assay: In vitro antimycotic activity on Aspergillus fumigatus; assay type: cell-based; conditions: TIMM0063, 10 (ppm), Casitone agar, 37° C., 48 hours, read-out: Antimycotic activity (growth inhibitory rate), A.fumigatus
Procedure: 3-2 In vitro antimycotic activity on Aspergillus fumigatus.
To Aspergillus fumigatus TIMM 0063 precultured at 37° C. for 48 hours on a potato dextrose agar (PDA) slant medium was added a sterilized physiological salt solution containing 0.1%(W/V) Tween 80. After conidia were made free from the solution, the solution was filtered through a sterilized two-sheet gauze to remove the mycelium mass. The number of the conidia in the resulting suspension was counted with a globulimeter and adjusted so as to be 1×10^5 conidia/ml with a sterilized physiological salt solution containing 0.1%(W/V) Tween 80. This solution was used as an inoculum solution. Casitone agar plate medium containing the DMSO solution of the test compound in a rate of 1% (V/V) was inoculated with the inoculum solution at four places thereof with a microplanter, and cultured with the medium allowed to stand at 37° C. for 48 hours. After culture, the diameter of the mycelium disks cultivated at the four inoculated parts was measured, and its mean value was obtained. The growth inhibitory rate was calculated according to the following equation, and the antimycotic activity was shown in the same manner as in Test Example 3-1.
Growth inhibitory rate (%)=(1-W'/Y')×100
Y': Diameter of mycelium disk of DMSO control group
W': Diameter of mycelium disk of test compound group

[5] = tested on: Rhizopus nigricans; assay: Test for wood rotting-preventing effect (mycelium growth inhibition on malt extract agar); assay type: cell-based; conditions: Rhizopus stolonifer, 28° C.±2° C., 2 to 10 days, read-out: Rotting preventing effect (mycelium growth-inhibitory rate), RHN
Procedure, shortened: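 Mycelial agar disks (4 mm) placed on malt extract agar containing 50 ppm test compound and grown at 28 °C ± 2 °C. Colony diameter measured 2-10 days after inoculation; mycelium growth-inhibitory rate (%) reported as a symbol score.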

[6] = tested on: Trichoderma viride; assay: as above; assay type: cell-based; conditions: 28° C.±2° C., 2 to 10 days, read-out: Rotting preventing effect (mycelium growth-inhibitory rate), TRV
Procedure, shortened: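 Mycelial agar disks (4 mm) placed on malt extract agar containing 50 ppm test compound and cultured at 28 °C ± 2 °C. Colony diameter measured 2–10 days after inoculation; growth-inhibitory rate (%) reported as symbol grades.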

[7] = tested on: Tyromyces palustris; assay: as above; assay type: cell-based; conditions: 28° C.±2° C., 2 to 10 days, read-out: Rotting preventing effect (mycelium growth-inhibitory rate), TYP
Procedure, shortened: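 Mycelial agar disks (4 mm) were placed on malt extract agar containing test compound at 50 ppm and grown at 28° C.±2° C. Colony diameter was measured 2-10 days after inoculation and converted to percent mycelium growth inhibition, reported as symbol grades.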

Structure (SMILES)	Antimycotic activity (degree of growth, naked eye), T.mentagrophytes [1]	pest or weed control at 200 ppm [2] [%]	inhibition at 50 ppm [3] [%]	inhibition of growth at 10 µg/mL [4] [%]	inhibition at 50 ppm [5] [%]	inhibition at 50 ppm [6] [%]	inhibition at 50 ppm [7] [%]
CSc1nsc(SCOCC#CI)c1C#N [Compound 136]	A	95 to 100	95 to 100	100	95 to 100	95 to 100	95 to 100
N#Cc1c(OCOCC#CI)nsc1SC(F)F [Compound 90]	A	95 to 100	95 to 100	100	95 to 100	95 to 100	95 to 100
CSc1snc(OC(C)OCC#CI)c1C#N (stereo not shown) [Compound 119]	A	95 to 100	95 to 100	100	80 to 94	95 to 100	95 to 100
CC(C)Oc1snc(OCC#CI)c1C#N [Compound 23]	A	95 to 100	95 to 100	100	95 to 100	95 to 100	95 to 100
COc1snc(OCC#CI)c1C#N [Compound 21, 3-(3-iodo-2-propynyloxy)-4-cyano-5-methoxyisothiazole]	A	95 to 100	95 to 100	100	95 to 100	95 to 100	95 to 100
CN(C)c1snc(OCC#CI)c1C#N [Compound 30, 3-(3-iodo-2-propynyloxy)-4-cyano-5-dimethylaminoisothiazole]	A	95 to 100	95 to 100	100	95 to 100	95 to 100	95 to 100
COc1nsc(OCC#CI)c1C#N [Compound 48]	A	95 to 100	95 to 100	100	95 to 100	95 to 100	95 to 100
CS(=O)(=O)c1snc(OCC#CI)c1C#N [Compound 41, 3-(3-iodo-2-propynyloxy)-4-cyano-5-methylsulfonylisothiazole]	A	95 to 100	95 to 100	100	95 to 100	95 to 100	95 to 100
N#Cc1c(OC(F)F)nsc1OCCC#CI [Compound 82]	A	95 to 100	95 to 100	100	95 to 100	95 to 100	95 to 100
CSc1snc(OCCC#CI)c1C#N [Compound 70]	A	80 to 94	95 to 100	100	80 to 94	95 to 100	95 to 100
CCOc1nsc(SCOCC#CI)c1C#N [Compound 54]	A	95 to 100	95 to 100	100	95 to 100	95 to 100	95 to 100
N#Cc1c(OC(F)F)nsc1SCOCC#CI [Compound 60]	A	95 to 100	95 to 100	100	95 to 100	95 to 100	95 to 100
CCOc1snc(OCOCC#CI)c1C#N [Compound 96]	A	95 to 100	95 to 100	100	95 to 100	95 to 100	95 to 100
N#Cc1c(OCC#CI)nsc1SC(F)F [Compound 12, 3-(3-iodo-2-propynyloxy)-4-cyano-5-difluoromethylthioisothiazole]	A	95 to 100	95 to 100	100	95 to 100	95 to 100	95 to 100
N#Cc1c(OCC#CI)nsc1S(=O)(=O)C(F)F [Compound 43]	A	95 to 100	95 to 100	100	95 to 100	95 to 100	95 to 100
CSc1snc(OCC#CI)c1C#N [Compound 1, 3-(3-iodo-2-propynyloxy)-4-cyano-5-methylthioisothiazole]	A	95 to 100	80 to 94	100	95 to 100	95 to 100	95 to 100
